Results on eight compounds are retold here after patent publication US12209096B2, “Compounds and compositions for inducing chondrogenesis” (NOVARTIS AG, priority 2017, dated 2025).

The nature of series [1]: intrinsic clearance in rat liver microsomes. In kind it is in vitro ADME. In general terms: Liver microsomes are vesicles of endoplasmic reticulum, rich in cytochrome P450 enzymes.
The nature of series [2]: intrinsic clearance in human liver microsomes. The series is classed as in vitro ADME.
The next series addresses CYP3A4 (Homo sapiens, UniProt P08684). Put plainly: CYP3A4 inhibition. The series is classed as in vitro ADME. Conditions: read-out: CYP3A4 inh.
The subject of series [3] is human chondrogenic progenitor cell (CPCs). Put plainly: Collagen type II assay (chondrogenic differentiation). Conditions: 432 h, hCPCs, 18 days; for Emax: read-out: (B) % Efficacy; for EC50: read-out: (B) EC50. In kind it is cell-based. Here is the method: To initiate chondrogenesis in primary CPCs, 8000 cells were plated/well in a Costar 96 well plate in MSCGM. After 24 hours the MSCGM was removed and replaced with DMEM containing 1% FBS. The test compound was then added to each well at the indicated dose. The cultures were grown at 37° C. for 18 days. A media supplement of an additional 50 μl of DMEM containing 1% FBS was given 10 days after chondrogenic induction.
To detect the presence of Collagen type II, hCPCs were fixed with 10% formalin for 20 minutes, permeablized with PBS containing 0.1% triton X-100, 0.2 mg/ml of Collagenase 2 for 10 minutes, blocked with PBS containing 5% BSA for 1 hr at room temperature, followed by incubation with primary antibody (anti-type II collagen antibody) in PBS containing 1% BSA overnight at 4° C. Cells were washed 3 times with PBS and incubated with fluorophore-conjugated secondary antibody and Hoechst dye for 1 hour at room temperature, followed by washing with PBS for 3 times.
The total intensity of staining was imaged by fluoresecent microscopy and/or quantified by high content imagining with the ImageXpress Micro (Molecular Devices, Sunnyvale, CA). Data analyses were performed with the customized multiwavelength cell-scoring application.

The subject of a further series is NHACs. Put plainly: calcium flux assay. Conditions: Homo sapiens; for Emax: read-out: (A) % Efficacy. The series is classed as cell-based, human. The method in brief:
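Normal human articular chondrocytes plated at 2000 cells/well and loaded 24 h later with Calcium 5 dye in HBSS/HEPES with 5 mM probenecid for 1 h at room temperature. Test compound added at indicated dose; fluorescence (ex 470–495/em 515–575 nm) recorded on FLIPR before and after addition.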
(In general: A change in cytosolic calcium serves as a functional read-out for many receptors and channels.)

The subject of another series is C3H10T1/2 cell line. Kind of series: alkaline phosphatase assay in C3H10T1/2. Conditions: Mus musculus, C3H 10T1/2, 144 h, alkaline phosphatase assay in C3H10T1/2, 6 days; for Emax: read-out: (D) % Efficacy; for IC50: read-out: (D) IC50. The series is classed as cell-based. The method in brief: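 Mouse C3H10T1/2 Clone 8 cells in DMEM/10% FBS dosed 24 h after plating, then cultured 6 days at 37° C. Fixed cells stained for alkaline phosphatase (Fast Blue RR/Naphthol AS-MX), imaged at 561 nm; readout is ALP-positive cells per well by high-content imaging.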

Series [4] concerns normal human articular chondrocytes (NHACs). Kind of series: alkaline phosphatase assay in NHAC. Conditions: Homo sapiens, Chondrocyte, 240 h, 10 days; for Emax: read-out: (C) % Efficacy; for IC50: read-out: (C) IC50. In kind it is cell-based. Here is the method:
To initiate differentiation in NHACs, 16,000 cells were plated/well in Costar 96 well plate in CGM media (Lonza). After 24 hours the MSCGM was removed and replaced with DMEM containing 1% FBS. The test compound was then added to each well at the indicated dose. The cultures were grown at 37° C. for 10 days.
To detect the presence of hypertrophic cells, NHACs were fixed with 10% formalin and Hoeschst dye for 20 minutes, rinsed in PBS, then stained with Fast Blue RR Salt with Naphthol AS-MX Phosphate Alkaline Solution.
The total intensity of staining was imaged by fluoresecent microscopy, using the 651 wavelength, and/or quantified by high content imagining with the ImageXpress Micro (Molecular Devices, Sunnyvale, CA). Data analyses were performed with the customized multiwavelength cell-scoring application.

Chain of CYP3A4 (P08684 whole entry): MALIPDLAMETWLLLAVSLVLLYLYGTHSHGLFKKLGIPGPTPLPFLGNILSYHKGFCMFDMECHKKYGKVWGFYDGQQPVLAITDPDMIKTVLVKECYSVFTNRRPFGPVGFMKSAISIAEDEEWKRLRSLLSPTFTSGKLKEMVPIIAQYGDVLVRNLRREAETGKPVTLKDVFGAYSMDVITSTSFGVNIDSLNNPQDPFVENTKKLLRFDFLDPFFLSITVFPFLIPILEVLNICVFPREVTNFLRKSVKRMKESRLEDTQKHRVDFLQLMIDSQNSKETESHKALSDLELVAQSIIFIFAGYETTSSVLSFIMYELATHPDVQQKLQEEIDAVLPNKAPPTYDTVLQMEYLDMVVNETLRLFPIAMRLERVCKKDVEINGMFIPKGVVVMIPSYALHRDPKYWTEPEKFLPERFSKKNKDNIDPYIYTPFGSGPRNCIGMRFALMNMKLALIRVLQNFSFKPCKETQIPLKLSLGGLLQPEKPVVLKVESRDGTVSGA

One may read the microsomal CLint as the rate of metabolic loss divided by the concentration. A high value points to rapid turnover. With `Nc1cc([C@@H]2[C@@H](C(=O)Nc3ccc(Cl)c(Cl)c3)[C@H]3CC[C@@H]2O3)ccn1` [reference compound], the microsomal CLint in series [1] is 243 µL/min/mg; in series [2], 38 µL/min/mg. For the same compound, at CYP3A4, the IC50 amounted to 5 µM.
Regarding `Nc1cc([C@H]2[C@H]3O[C@H](C[C@@H]3O)[C@@H]2C(=O)Nc2ccc(Cl)c(Cl)c2)ccn1` [drawing 199], the results for the microsomal CLint in series [1] and in series [2] were 11 µL/min/mg and 7 µL/min/mg, respectively. Besides, the IC50 at CYP3A4 amounted to 20 µM.
As a reminder, the EC50 is the concentration at which the effect is half-maximal. For `Cc1cc([C@H]2[C@H]3O[C@H](C[C@@H]3O)[C@@H]2C(=O)Nc2cnc(Cl)c(Cl)c2)ccn1` (single isomer, unassigned) [Example 83], the Emax in series [3] worked out at 150%; with NHACs, 38%; in the series with C3H10T1/2 cell line, 34%; in series [4], 106%. The EC50 in series [3] is 1.5 µM; in the series on NHACs, above 50 µM. Further, the IC50 is above 20 µM in the series with C3H10T1/2 cell line and 12 µM in series [4].
For the compound `O=C(Nc1ccc(Cl)c(Cl)c1)[C@H]1[C@@H](c2ccncc2)[C@H]2O[C@@H]1C[C@@H]2O`, the microsomal CLint in series [1] and in series [2] was 7 µL/min/mg each time. Moreover, the IC50 on CYP3A4 is above 25 µM.
For the compound `O=C(Nc1ccc(Cl)c(Cl)c1)[C@H]1[C@@H](c2ccncc2)[C@@H]2CC[C@H]1O2` [reference compound], the microsomal CLint in series [1] stood at 466 µL/min/mg; in series [2] it was 202 µL/min/mg. In addition, the IC50 on CYP3A4 turned out to be 6 µM.
Turning to `Cc1cc([C@H]2[C@H]3O[C@H](C[C@@H]3O)[C@@H]2C(=O)Nc2ccc(Cl)c(Cl)c2)ccn1` (single isomer, unassigned) [Example 77a], the Emax in series [3] was determined as 120%; in the series with NHACs it was 182%; with C3H10T1/2 cell line it was 45%; in series [4], 114%. Further, the values for the EC50 (in series [3]; in the series on NHACs) were 0.69 µM and 26 µM, respectively. For the same compound, the IC50 in the series with C3H10T1/2 cell line was above 20 µM; in series [4], 3.5 µM.
On to `O=C(Nc1ccc(Cl)c(Cl)c1)[C@H]1[C@@H](c2ccncc2)[C@H]2O[C@@H]1C[C@@H]2O` (single isomer, unassigned) [Example 47a], for which the Emax in series [3] is 82%; with NHACs, 68%; with C3H10T1/2 cell line, 23%; in series [4], 88%. In addition, the results for the EC50 (in series [3]; with NHACs) were 2.1 µM and above 50 µM, respectively. Also, the IC50 in the series on C3H10T1/2 cell line is above 20 µM; in series [4], 33 µM.
As for `O=C(Nc1cnc(Cl)c(Cl)c1)[C@@H]1[C@@H](c2ccnc(F)c2)[C@H]2O[C@@H]1C[C@@H]2O` (single isomer, unassigned) [Example 90a], the Emax came to 65% in series [3], 101% in the series with NHACs, 48% in the series on C3H10T1/2 cell line and 98% in series [4]. Further, the EC50 in series [3] was 2.3 µM; in the series with NHACs, above 50 µM. For the same compound, the IC50 was above 20 µM with C3H10T1/2 cell line and above 50 µM in series [4].
